The test system of experiment [1] is Escherichia coli cefazolin-resistant bacteria. The experiment can be described thus: survival rate with single amino acids or amino acid combination in synergy with cefazolin. The experiment is classed as cell-based. Here is the method: Each amino acid in 2 mM compound amino acids was added alone with a corresponding concentration, and through survival rate of bacteria, it was studied improvement on sensitivity of bacteria to antibiotics when each amino acid was in synergy with cefazolin.

The test system of experiment [2] is Escherichia coli sensitive bacteria K12. The experiment can be described thus: survival rate of bacteria by plate count, compound amino acids in synergy with antibiotics. The following applies: for survival rate of bacteria: first of 7 values, taken as no compound amino acids. The experiment is classed as cell-based.
Experiment [3] concerns ampicillin-resistant bacteria (K12-RAMP). The experiment in a line: survival rate of bacteria, compound amino acids in synergy with ampicillin. The following applies: ampicillin 2000 μg/mL; second of 8 values, taken as ampicillin without compound amino acids. The experiment is classed as cell-based, Escherichia coli. How it is done:
Taking Escherichia coli sensitive bacteria K12 and artificially passaged ampicillin-resistant bacteria (K12-RAMP) as research objects, for the former, concentration of ampicillin was 40 μg/mL, and for the latter, concentration of ampicillin was 2000 μg/mL. It was investigated effects of 0.125, 0.5, 2.0, 8.0, 32, and 64 mM compound amino acids in synergy with antibiotics of the above concentrations on survival rates of sensitive bacteria and corresponding resistant bacteria.

Experiment [4] concerns balofloxacin-resistant bacteria (K12-RBLFX). The experiment in a line: survival rate of bacteria, compound amino acids in synergy with balofloxacin. Type of experiment: cell-based, Escherichia coli. The settings on record: balofloxacin 25 μg/mL; second of 8 values, taken as balofloxacin without compound amino acids. Here is the method: Taking Escherichia coli sensitive bacteria K12 and balofloxacin-resistant artificially passaged resistant bacteria (K12-RBLFX) as research objects, for the former, concentration of balofloxacin was 0.2 μg/mL, and for the latter, concentration of balofloxacin was 25 μg/mL. It was investigated effects of compound amino acids of different concentrations in synergy with antibiotics of the above concentrations on survival rates of sensitive bacteria and corresponding resistant bacteria.

In experiment [5] the test system is Escherichia coli strains clinically obtained. The experiment can be described thus: MIC against cefazolin (NCCLS method). The experiment is classed as cell-based. The source says: (§1) Escherichia coli (E. coli) is one of the most common bacteria in clinical practice. 35 Escherichia coli strains clinically obtained were named as Y1 to Y12, Y15 to Y24, Y27, Y28, and Y30 to Y40. The minimum inhibitory concentration (MIC) of these 35 Escherichia coli strains clinically obtained against cefazolin antibiotics was detected according to the NCCLS method, at the same time, Escherichia coli sensitive bacteria K12 and cefazolin-resistant bacteria K12-RCZO were used as controls to determine the MIC.

For experiment [6], the system named is Escherichia coli cefazolin-resistant bacteria (K12-RCZO). The experiment can be described thus: MIC against cefazolin. The experiment is classed as cell-based.
From the text: as §1

Experiment [7] has as its system Escherichia coli sensitive bacteria K12. The experiment can be described thus: MIC against cefazolin. Type of experiment: cell-based.
From the text: as §1

For experiment [8], the system named is Bacillus subtilis. The experiment can be described thus: survival rate, compound amino acids in synergy with cefazolin. Type of experiment: cell-based. The settings on record: cefazolin 80 μg/mL without compound amino acids, 6 h. How it is done:
(§2) Other Gram-negative bacteria such as Vibrio alginolyticus, Vibrio parahaemolyticus, and Pseudomonas aeruginosa, and Gram-positive bacteria Bacillus subtilis were selected as research objects to investigate bactericidal effect of compound amino acids in synergy with cefazolin; among them, concentration of compound amino acids was 2 mM, concentration of cefazolin was 80 μg/mL, and incubation time was 6 h, a relative survival rate of bacteria was calculated.

For experiment [9], the system named is Vibrio alginolyticus. The description is as above. The experiment is classed as cell-based. The settings on record: cefazolin 80 μg/mL without compound amino acids, 6 h. How it is done:
as §2

Experiment [10] deals with Pseudomonas aeruginosa. The description is as above. The following applies: cefazolin 80 μg/mL without compound amino acids, 6 h. The experiment is classed as cell-based. How it is done:
as §2

Experiment [11] relates to Vibrio parahaemolyticus. Described as above. Type of experiment: cell-based. The following applies: cefazolin 80 μg/mL without compound amino acids, 6 h. Here is the method:
as §2

In experiment [12] the test system is resistant bacteria K12-RCZO. Type of experiment: cell-based, Escherichia coli. Here is the method: Preparation of bacterial samples: monoclonal bacteria of sensitive bacteria K12 or resistant bacteria K12-RCZO were picked and inoculated in 50 mL LB liquid medium respectively. After incubation for 17 h at 37° C. and 200 rpm, bacterial cells were collected by centrifugation at 8000 rpm for 4 min; the bacterial cells were washed twice with 0.85% normal saline, suspended in 1×M9 medium, adjusted to OD600 as 0.6, and then dispensed 5 mL into test tubes for subsequent experimental research.
Each of prepared bacterial samples was divided into 4 groups: control group, group of 2 mM 5% compound amino acids added only, and group of cefazolin antibiotics added only (a concentration being 80 μg/mL for sensitive bacteria K12, and a concentration being 2 mg/mL for resistant bacteria K12-RCZO), and group of cefazolin and 2 mM compound amino acids added. Bacteria were incubated at 37° C. and 200 rpm for 6 h, and then 100 μL was taken for doubling dilution, and 10 μL of bacterial solution was taken therefrom for plate count to calculate a survival rate of bacteria; results are shown in FIG. 3.
In order to explore the relationship between compound amino acids improving sensitivity of resistant bacteria to antibiotics and antibiotic concentration, 8 cefazolin concentration gradients (0, 62.5, 125, 250, 500, 1,000, 2,000 and 4,000 μg/mL) were set up; then, 2 mM compound amino acids were added or not added, respectively, after 6 h, plate count method was used to count viable bacteria; under the same antibiotics concentration, survival rates of bacteria when compound amino acids not added (control) and after compound amino acids added were compared.

From patent US12427129B2, “Application of compound amino acids in preparation of medicament for improving sensitivity of bacteria to antibiotics” (SUN YAT-SEN UNIVERSITY, priority 2020, dated 2025) come the findings set out here.

Converted amounts (≈) assume the structure as drawn. Read-outs that look alike come from different tables or passages of the source.

Broadly, the MIC is the least concentration at which growth counts as inhibited.

In the case of `C[C@H](N)C(=O)O` [alanine], in experiment [1] (amino acid alone at 404 μM in synergy with cefazolin), the survival rate is reported as 73.6%.

For the compound `CC1(C)S[C@@H]2[C@H](NC(=O)[C@H](N)c3ccccc3)C(=O)N2[C@H]1C(=O)O` [ampicillin], the survival rate stood at 86.7% in [2] (ampicillin 40 μg/mL, second of 8 values, taken as ampicillin without compound amino acids) and 87.2% in experiment [3].

With `N=C(N)NCCC[C@H](N)C(=O)O` [arginine], the survival rate in [1] (amino acid alone at 140 μM in synergy with cefazolin) was found to be 97.3%.

With `N[C@@H](CC(=O)O)C(=O)O` [aspartate], the survival rate in experiment [1] (amino acid alone at 56 μM in synergy with cefazolin) worked out at 94.5%.

In the case of `CNC1CCCN(c2c(F)cc3c(=O)c(C(=O)O)cn(C4CC4)c3c2OC)C1` (centres unmarked) [balofloxacin], the survival rate in experiment [4] is given as 90.2%.

For the compound `Cc1nnc(SCC2=C(C(=O)O)N3C(=O)[C@@H](NC(=O)Cn4cnnn4)[C@H]3SC2)s1` [cefazolin], the MIC in experiment [5] (37% of the remaining clinical Escherichia coli resistant bacteria) is more than 640 µg/mL; in [5] (clinical strain Y1), 40 µg/mL (≈ 88 µM); in [5] (clinical strain Y3), 2.5 µg/mL (≈ 5.5 µM); in [5] (clinical strain Y5), 10 µg/mL (≈ 22 µM); in experiment [5] (clinical strain Y6) it was 40 µg/mL (≈ 88 µM); in experiment [5] (clinical strain Y7), 2.5 µg/mL (≈ 5.5 µM). Moreover, the MIC came to 5 µg/mL (≈ 11 µM) in experiment [5] (clinical strain Y8); 10 µg/mL (≈ 22 µM) in [5] (clinical strain Y11); 40 µg/mL (≈ 88 µM) in [5] (clinical strain Y12); 5 µg/mL (≈ 11 µM) in experiment [5] (clinical strain Y15); 5 µg/mL (≈ 11 µM) in experiment [5] (clinical strain Y16); 10 µg/mL (≈ 22 µM) in [5] (clinical strain Y17). In addition, the minimal inhibitory concentration (MIC) in [5] (clinical strain Y18) was 20 µg/mL (≈ 44 µM); in [5] (clinical strain Y19), 5 µg/mL (≈ 11 µM); in experiment [5] (clinical strain Y20), 20 µg/mL (≈ 44 µM); in [5] (clinical strain Y21), 20 µg/mL (≈ 44 µM); in experiment [5] (clinical strain Y22), 5 µg/mL (≈ 11 µM); in experiment [5] (clinical strain Y23), 2.5 µg/mL (≈ 5.5 µM). Besides, the minimum inhibitory concentration (MIC) in experiment [5] (clinical strain Y24) was found to be 20 µg/mL (≈ 44 µM); in experiment [5] (clinical strain Y28), 5120 µg/mL (≈ 11300 µM); in experiment [5] (clinical strain Y32), 5120 µg/mL (≈ 11300 µM); in experiment [5] (clinical strain Y36), 5120 µg/mL (≈ 11300 µM); in experiment [5] (clinical strain Y40) it was 20 µg/mL (≈ 44 µM); in experiment [6] (Escherichia coli, read-out: MIC against cefazolin) it was 80 µg/mL (≈ 176 µM). For the same compound, 1.25 µg/mL (≈ 2.75 µM) was the least that counted as inhibitory in experiment [7] (MIC). Further, the “MIC relative to that of the starting strain” value in [6] (K12-RCZO vs K12) was determined as 64 times. In addition, the survival rate in experiment [8] was found to be 58.0%; in [9], 62.1%; in experiment [10], 85.9%; in experiment [11] it was 79.3%; in [2] (cefazolin 80 μg/mL, compound amino acids 0 mM, 6 h), 89.6%; in experiment [12] (cefazolin 1,000 μg/mL, compound amino acids 0 mM, 6 h) it was 92.6%. The “survival rate of bacteria” value is 89.6% in experiment [12] (as printed in b79: K12-RCZO, compound amino acids 0 mM, 1000 μg/mL cefazolin (results of FIG. 4)); 87.5% in experiment [12] (cefazolin 62.5 μg/mL, compound amino acids not added, 6 h); 96.9% in experiment [12] (cefazolin 125 μg/mL, compound amino acids not added, 6 h); 83.3% in experiment [12] (cefazolin 250 μg/mL, compound amino acids not added, 6 h); 78.6% in experiment [12] (cefazolin 500 μg/mL, compound amino acids not added, 6 h); 83.3% in [12] (cefazolin 1,000 μg/mL, compound amino acids not added, 6 h). For the same compound, the “survival rate of bacteria” value in experiment [12] (cefazolin 2,000 μg/mL, compound amino acids not added, 6 h) is reported as 84.4%; in experiment [12] (cefazolin 4,000 μg/mL, compound amino acids not added, 6 h), 69.8%; in experiment [1] (M9 control group with antibiotics added (1 mg/mL cefazolin), 6 h), 45.9%; in experiment [1] (only cefazolin is added), 85.04%.

Take `CO/N=C(\C(=O)N[C@@H]1C(=O)N2C(C(=O)O)=C(CSC(=O)c3ccco3)CS[C@H]12)c1csc(N)n1` [ceftiofur]: the “survival rate of bacteria” value in experiment [2] (ceftiofur 200 μg/mL, 6 h) was found to be 61.9%.

With `CO/N=C(\C(=O)N[C@@H]1C(=O)N2C(C(=O)O)=C(CSc3nc(=O)c(=O)[nH]n3C)CS[C@H]12)c1csc(N)n1` [ceftriaxone], the “survival rate of bacteria” value in [2] (ceftriaxone 10 μg/mL, 6 h) is 73.1%.

Consider `N[C@@H](CSSC[C@H](N)C(=O)O)C(=O)O` [cystine], for which the survival rate in experiment [1] (amino acid alone at 4 μM in synergy with cefazolin) is 94.1%.

Regarding `N[C@@H](CCC(=O)O)C(=O)O` [glutamic acid], the survival rate in experiment [1] (amino acid alone at 85 μM in synergy with cefazolin) was 94.5%.

In the case of `NCC(=O)O` [glycine], the survival rate in experiment [1] (amino acid alone at 233 μM in synergy with cefazolin) worked out at 71.4%.

`N[C@@H](Cc1c[nH]cn1)C(=O)O` [histidine]: the survival rate in experiment [1] (amino acid alone at 96 μM in synergy with cefazolin) is 97.6%.

Take `CC[C@H](C)[C@H](N)C(=O)O` [isoleucine]: the survival rate in experiment [1] (amino acid alone at 95 μM in synergy with cefazolin) was determined as 69.6%.

Regarding `CC(C)C[C@H](N)C(=O)O` [leucine], the survival rate in experiment [1] (amino acid alone at 129 μM in synergy with cefazolin) was 75.7%.

For the compound `CC(=O)O.NCCCC[C@H](N)C(=O)O` [lysine acetate], the survival rate in experiment [1] (amino acid alone at 133 μM in synergy with cefazolin) is reported as 68.6%.

On to `CSCC[C@H](N)C(=O)O` [methionine], for which the survival rate in experiment [1] (amino acid alone at 83 μM in synergy with cefazolin) came to 91.5%.

For the compound `N[C@@H](Cc1ccccc1)C(=O)O` [phenylalanine], the survival rate in experiment [1] (amino acid alone at 106 μM in synergy with cefazolin) came out at 98.8%.

On to `O=C(O)[C@@H]1CCCN1` [proline], for which the survival rate in experiment [1] (amino acid alone at 126 μM in synergy with cefazolin) is given as 85.4%.

On to `N[C@@H](CO)C(=O)O` [serine], for which, in experiment [1] (amino acid alone at 47 μM in synergy with cefazolin), the survival rate was found to be 67.9%.

As for `C[C@@H](O)[C@H](N)C(=O)O` [threonine], the survival rate in [1] (amino acid alone at 105 μM in synergy with cefazolin) was 59.4%.

Take `N[C@@H](Cc1c[nH]c2ccccc12)C(=O)O` [tryptophan]: in experiment [1] (amino acid alone at 20 μM in synergy with cefazolin), the survival rate is reported as 67.4%.

Take `N[C@@H](Cc1ccc(O)cc1)C(=O)O` [tyrosine]: the survival rate in experiment [1] (amino acid alone at 5 μM in synergy with cefazolin) is on record as 80.5%.

Take `CC(C)[C@H](N)C(=O)O` [valine]: the survival rate in experiment [1] (amino acid alone at 136 μM in synergy with cefazolin) is given as 78.8%.
